According to PubChem BioAssay (NCI):
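1) Cells in 96-well plates. 2) Compound, 48 h, 5 concentrations. 3) Linear interpolation between surrounding doses. 4) Unreached endpoint = highest concentration. TGI marks complete inhibition of growth.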

Key:
Assay in all cases: NCI tumour cell line growth inhibition, 48 h
MDA-MB-435 = tested on: MDA-MB-435
COLO 205 colon = tested on: COLO 205 colon
SR leukemia = tested on: SR leukemia
OVCAR-3 ovarian = tested on: OVCAR-3 ovarian
IGROV1 ovarian = tested on: IGROV1 ovarian
HS 578T breast = tested on: HS 578T breast
UACC-62 melanoma = tested on: UACC-62 melanoma
PC-3 prostate = tested on: PC-3 prostate
NCI-H23 lung = tested on: NCI-H23 lung
UACC-257 melanoma = tested on: UACC-257 melanoma
A549 NSCLC = tested on: A549 NSCLC
UO-31 renal = tested on: UO-31 renal
SNB-19 CNS = tested on: SNB-19 CNS
SK-OV-3 ovarian = tested on: SK-OV-3 ovarian
T-47D breast = tested on: T-47D breast
OVCAR-5 ovarian = tested on: OVCAR-5 ovarian
SF-268 CNS = tested on: SF-268 CNS
NCI-H522 lung = tested on: NCI-H522 lung
MOLT-4 leukemia = tested on: MOLT-4 leukemia
SN12C renal = tested on: SN12C renal
SK-MEL-28 melanoma = tested on: SK-MEL-28 melanoma
SW-620 colon = tested on: SW-620 colon
TK-10 renal = tested on: TK-10 renal
CCRF-CEM leukemia = tested on: CCRF-CEM leukemia
NCI/ADR-RES ovarian = tested on: NCI/ADR-RES ovarian
BT-549 breast = tested on: BT-549 breast
SF-539 CNS = tested on: SF-539 CNS
OVCAR-4 ovarian = tested on: OVCAR-4 ovarian
HOP-92 NSCLC = tested on: HOP-92 NSCLC
SK-MEL-2 melanoma = tested on: SK-MEL-2 melanoma
SK-MEL-5 melanoma = tested on: SK-MEL-5 melanoma
HOP-62 NSCLC = tested on: HOP-62 NSCLC
NCI-H460 lung = tested on: NCI-H460 lung
NCI-H226 lung = tested on: NCI-H226 lung
CAKI-1 renal = tested on: CAKI-1 renal
HL-60(TB) leukemia = tested on: HL-60(TB) leukemia
HCC-2998 colon = tested on: HCC-2998 colon
OVCAR-8 ovarian = tested on: OVCAR-8 ovarian
DU-145 prostate = tested on: DU-145 prostate
SF-295 CNS = tested on: SF-295 CNS
U251 CNS = tested on: U251 CNS
MDA-MB-231 breast = tested on: MDA-MB-231 breast
K-562 leukemia = tested on: K-562 leukemia
SNB-75 CNS = tested on: SNB-75 CNS
KM12 colon = tested on: KM12 colon
A498 renal = tested on: A498 renal
EKVX NSCLC = tested on: EKVX NSCLC
HCT-15 colon = tested on: HCT-15 colon
MALME-3M melanoma = tested on: MALME-3M melanoma
HT29 colon = tested on: HT29 colon
MCF7 breast = tested on: MCF7 breast
ACHN renal = tested on: ACHN renal
RXF 393 renal = tested on: RXF 393 renal
M14 melanoma = tested on: M14 melanoma

Measured: TGI

NC(=O)c1ncn2c1CNC(=O)C2
> 100 µM: all assays above
